{"source": "patent US20230190680A1", "about": "“METHODS AND COMPOSITIONS FOR TREATING AN RNA VIRUS INDUCED DISEASE” (Golden Biotechnology Corporation, priority 2020, published 2023)", "key": {"[1]": {"system": "HBeAg", "assay": "ELISA of HBeAg in HepG2.2.15 supernatants", "format": "cell-based, HBV", "conditions": "72 hours, FIG. 1A", "procedure": "(§1) Cell Culture. HepG2.2.15 cell line was cultured in MEM medium, supplemented with 10% fetal bovine serum, penicillin (100 IU/ml; Gibco, USA), and streptomycin (100 ug/ml; Gibco, USA) in 5% CO2 incubator at 37° C. This is a cell line derived from human hepatoblastoma cell line HepG2 and characterized by having stable HBV expression. Qs5 is HBV-producing rat hepatoma cell lines.\n(§2) Lamivudine (3TC) and Adefovir dipivoxil (Adv) are marketed for HBV treatment as positive controls. Antroquinonol (G4) and Lamivudine (3TC) dissolved in dimethylsulfoxide (DMSO) only for stock solutions and diluted in culture medium. The final concentration of DMSO in cells is less 0.1%. Drugs treated with 2×10^4 cells in 96-well plate for 72 hours.\n(§3) The levels of HBsAg and HBeAg in HepG2.2.15 supernatants were measured using their commercial enzyme-linked immunosorbent assay (ELISA) kits following the manufacturer’s instructions.\n(§4) To examine the effect of Antroquinonol on HBV protein expression, including surface antigen (HBsAg) and e antigen (HBeAg), ELISA assay was used to quantify HBV replication. The study results have shown that Compound 1 (i.e., Antroquinonol) reduces HBeAg (see FIG. 1A) and HBsAg (see FIG. 1B) expression levels. Compound 1 in comparison with Lamivudine, has shown reduction in the expression levels of the two major HBV biomarkers, HBeAg and HBsAg by 50% and 40% respectively."}, "[2]": {"system": "HBsAg", "assay": "ELISA of HBsAg in HepG2.2.15 supernatants", "format": "cell-based, HBV", "conditions": "72 hours, FIG. 1B", "procedure": "as §1, §2, §3, §4"}, "[3]": {"system": "HCV RNA", "assay": "HCV RNA activity (FIG. 2B)", "format": "cell-based"}, "[4]": {"system": "HepG2.2.15 cells", "assay": "MTT assay (cytotoxicity)", "format": "cell-based, human", "procedure": "as §1\nMTT assay. 1.25 ×10^5 cells/well were seeded onto 24-well plate. Cells were incubated with varying concentrations of G4 and 3TC (1, 5, 25, 50, 100 and 200 uM) for 72 hours. 1 mg/ml 3-(4, 5-dimethylthiazol-2-yl)-2, 5- diphenyltetrazolium- bromide (MTT) was added to each well and incubated for 2 hours at 37° C. to allow formation of the colored crystals. Medium was replaced with DMSO and plates were incubated for 15 minutes at room temperature with shaking to dissolve the crystals. The absorbance was measured by the microplate reader. The optical density was measured at 490 nm."}, "[5]": {"system": "NF-kB", "assay": "Renal inflammation, NF-kB activation model (FIG. 7): NF-kB expression", "format": "in vivo"}, "[6]": {"system": "Nrf-2", "assay": "Renal inflammation, NF-kB activation model (FIG. 7): nuclear Nrf-2 expression", "format": "in vivo"}, "[7]": {"system": "MCP-1", "assay": "Local renal inflammation marker MCP-1 (FIG. 8)", "format": "in vivo"}, "[8]": {"system": "IL-6", "assay": "Local renal inflammation marker IL-6 (FIG. 8)", "format": "in vivo"}, "[9]": {"system": "CD3", "assay": "Local renal inflammation marker CD3 (FIG. 8)", "format": "in vivo"}, "[10]": {"system": "SARS-CoV-2", "format": "cell-based", "conditions": "Vero E6 cells, MOI = 0.1, 24 h, FIG. 10"}, "[11]": {"system": "CXCL10", "format": "cell-based", "conditions": "DMSO 9.04 fold"}, "[12]": {"system": "IL6", "format": "cell-based", "conditions": "10 µM; DMSO 47.81-fold; FIG. 12B"}, "[13]": {"system": "IL18", "format": "cell-based", "conditions": "20 µM, DMSO 1.36-fold"}, "[14]": {"system": "TGFB1", "format": "cell-based", "conditions": "20 µM, DMSO 2.59-fold"}, "[15]": {"system": "COL4A1", "format": "cell-based", "conditions": "20 µM; DMSO 2.37-fold; FIG. 13B"}}, "note": "Where two headings read alike, the source gives them in different places.", "data": [{"compound": "COC1=C(OC)C(O)C(C/C=C(\\C)CC/C=C(\\C)CCC=C(C)C)C(C)C1=O", "note": "(stereo not drawn) [Compound 1, 4-hydroxy-2,3-dimethoxy-6-methyl-5-(3,7,11-trimethyldodeca-2,6,10-trienyl)cyclohex-2-enone]", "values": [{"measurement": "reduction in the expression level of HBeAg", "setting": "[1]", "value": 50, "unit": "%"}, {"measurement": "reduction in the expression level of HBsAg", "setting": "[2]", "value": 40, "unit": "%"}, {"measurement": "reduction in HCV RNA activity", "setting": "[3]", "value": 95, "unit": "%"}, {"measurement": "cytotoxicity by MTT assay", "setting": "[4]; over 25 uM", "value": "cytotoxicity effects"}, {"measurement": "cytotoxicity by MTT assay", "setting": "[4]; up to exposure to 5 uM", "value": "No apparent cytotoxicity"}, {"measurement": "suppression in NF-kB expression", "setting": "[5]", "value": 36, "unit": "%"}, {"measurement": "enhancement in nuclear Nrf-2 expression", "setting": "[6]", "value": 2, "unit": "times"}, {"measurement": "suppression of MCP-1 expression", "setting": "[7]", "value": "around 50%"}, {"measurement": "suppression of IL-6 expression", "setting": "[8]", "value": "~57", "unit": "%"}, {"measurement": "suppression of CD3 expression", "setting": "[9]", "value": "~66", "unit": "%"}, {"measurement": "reduction of SARS-CoV-2 concentration", "setting": "[10]; 10 µM", "value": 91.20, "unit": "%"}, {"measurement": "reduction of SARS-CoV-2 concentration", "setting": "[10]; 20 µM", "value": 99.93, "unit": "%"}, {"measurement": "change in CXCL10 expression", "setting": "[11]; 10 µM", "value": 3.40, "unit": "fold"}, {"measurement": "change in CXCL10 expression", "setting": "[11]; 20 µM", "value": 1.01, "unit": "fold"}, {"measurement": "change in IL6 expression", "setting": "[12]", "value": 11.88, "unit": "fold"}, {"measurement": "change in IL18 expression", "setting": "[13]", "value": 0.89, "unit": "fold"}, {"measurement": "change in TGFB1 expression", "setting": "[14]", "value": 0.99, "unit": "fold"}, {"measurement": "change in COL4A1 expression", "setting": "[15]", "value": 0.65, "unit": "fold"}]}]}
